The first experiment concerns human primary T-cells, IL-2 stimulated proliferation (JAK-1 and JAK-3 dependent; reported as JAK3 activity). The experiment can be described thus: Human primary T-cell proliferation stimulated by IL-2 (Example 3). The format is cell-based. Particulars: Homo sapiens, T-cell, tested under conditions described in Example 3 (IL-2 stimulated human primary T-cell proliferation); read-out: ability to inhibit JAK3 activity, IC50 range (Table V). The gist of the method: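 Peripheral-blood human T-cells pre-activated via TCR/CD28, IL-2-starved overnight, then cultured 72 h at 37 °C with compound in Yssel's medium containing IL-2 (80 U/mL in cell suspension). Proliferation read as viable-cell ATP by CellTiter-Glo luminescence; reduction versus control taken as JAK pathway inhibition.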
In general, IC50 refers to the midpoint of a concentration-inhibition curve. For `Cc1cc(C)c(Nc2ncc(C)c(Nc3ccc4oc(=O)[nH]c4c3)n2)c(C)c1` [IV-61, 5-[5-Methyl-2-(2,4,6-trimethyl-phenylamino)-pyrimidin-4-ylamino]-3H-benzooxazol-2-one], the IC50 was more than 10000 nM. As for `Cc1cnc(Nc2ccc(N3CCN(C(C)C)[C@H](C)C3)nc2)nc1Nc1ccc2oc(=O)[nH]c2c1` [II-70, (R)-5-(2-(6-(4-isopropyl-3-methylpiperazin-1-yl)pyridin-3-ylamino)-5-methylpyrimidin-4-ylamino)benzo[d]oxazol-2(3H)-one], the IC50 was less than 500 nM.

For the compound `Cc1cnc(Nc2ccccc2F)nc1Nc1ccc2oc(=O)[nH]c2c1` [Compound I-468, 5-[2-(2-Fluoro-phenylamino)-5-methyl-pyrimidin-4-ylamino]-3H-benzooxazol-2-one], the IC50 is less than 500 nM. `Cc1cnc(Nc2cc(Cl)c(F)c(C(F)(F)F)c2)nc1Nc1ccc2oc(=O)[nH]c2c1` [Compound I-230, 5-(2-(3-chloro-4-fluoro-5-(trifluoromethyl)phenylamino)-5-methylpyrimidin-4-ylamino)benzo[d]oxazol-2(3H)-one]: the IC50 lay within 500 to 5000 nM. With `Cc1cnc(Nc2ccc(N3CCC(NC(=O)NCc4ccccc4)C3)nc2)nc1Nc1ccc2oc(=O)[nH]c2c1` (stereo not shown) [II-98, 1-benzyl-3-(1-(5-(5-methyl-4-(2-oxo-2,3-dihydrobenzo[d]oxazol-5-ylamino)pyrimidin-2-ylamino)pyridin-2-yl)pyrrolidin-3-yl)urea], the IC50 is less than 500 nM. Take `Cc1cnc(Nc2ccc(N3CCCC3)nc2)nc1Nc1ccc2oc(=O)[nH]c2c1` [II-71, 5-(5-methyl-2-(6-(pyrrolidin-1-yl)pyridin-3-ylamino)pyrimidin-4-ylamino)benzo[d]oxazol-2(3H)-one]: the IC50 was less than 500 nM. With `COc1cc(Nc2ncc(C)c(Nc3ccc4oc(=O)[nH]c4c3)n2)cc2ccccc12` [IV-55, 5-[2-(4-Methoxy-naphthalen-2-ylamino)-5-methyl-pyrimidin-4-ylamino]-3H-benzooxazol-2-one], the half-maximal inhibitory concentration (IC50) is less than 500 nM.

Consider `CCN(CC)C1CCN(C(C)c2ccc(Nc3ncc(C)c(Nc4ccc5oc(=O)[nH]c5c4)n3)cc2)C1` (stereo not shown) [Compound I-205, 5-(2-(4-(1-(3-(diethylamino)pyrrolidin-1-yl)ethyl)phenylamino)-5-methylpyrimidin-4-ylamino)benzo[d]oxazol-2(3H)-one], for which the IC50 is less than 500 nM. With `CN[C@@H]1CCCN(c2ccc(Nc3ncc(C)c(Nc4ccc5oc(=O)[nH]c5c4)n3)cn2)C1` [II-88, (R)-5-(5-methyl-2-(6-(3-(methylamino)piperidin-1-yl)pyridin-3-ylamino)pyrimidin-4-ylamino)benzo[d]oxazol-2(3H)-one], the IC50 was less than 500 nM. Same read-out and setting: to `Cc1cnc(Nc2ccc(N3CCC(F)(F)CC3)nc2)nc1Nc1ccc2oc(=O)[nH]c2c1` [II-59, 5-(2-(6-(4,4-difluoropiperidin-1-yl)pyridin-3-ylamino)-5-methylpyrimidin-4-ylamino)benzo[d]oxazol-2(3H)-one] belongs less than 500 nM; to `Cc1cnc(Nc2ccc(C3NCC4CCCCC43)nc2)nc1Nc1ccc2oc(=O)[nH]c2c1` (stereo not shown) [II-121, 5-methyl-N2-[2-(octahydroisoindol-1-yl)pyridin-5-yl]-N4-(2-oxo-2,3-dihydro-1,3-benzoxazol-5-yl)-2,4-pyrimidinediamine], less than 500 nM; to `Cc1cnc(Nc2ccc(N[C@H]3CCCNC3)nc2)nc1Nc1ccc2oc(=O)[nH]c2c1` [II-104, (S)-5-(5-methyl-2-(6-(piperidin-3-ylamino)pyridin-3-ylamino)pyrimidin-4-ylamino)benzo[d]oxazol-2(3H)-one], less than 500 nM. Still for that read-out and setting: as for `COc1cc(Nc2ncc(C)c(Nc3ccc4oc(=O)[nH]c4c3)n2)cc(C(C)N2CCCC2)c1` (stereo not shown) [Compound I-234, 5-(2-(3-methoxy-5-(1-(pyrrolidin-1-yl)ethyl)phenylamino)-5-methylpyrimidin-4-ylamino)benzo[d]oxazol-2(3H)-one], the figure is less than 500 nM.

Consider `Cc1cnc(Nc2ccc3c(c2)C(NC(C)C)CCCC3)nc1Nc1ccc2oc(=O)[nH]c2c1` (stereo not shown) [IV-12, 5-[2-(9-Isopropylamino-6,7,8,9-tetrahydro-5H-benzocyclohepten-2-ylamino)-5-methyl-pyrimidin-4-ylamino]-3H-benzooxazol-2-one], for which the IC50 is less than 500 nM. Same read-out and setting: to `Cc1cnc(Nc2cccc(F)c2F)nc1Nc1ccc2oc(=O)[nH]c2c1` [Compound I-467, 5-[2-(2,3-Difluoro-phenylamino)-5-methyl-pyrimidin-4-ylamino]-3H-benzooxazol-2-one] belongs less than 500 nM. As for `COc1cc(Nc2ncc(C)c(Nc3ccc4oc(=O)[nH]c4c3)n2)ccc1C(=O)NC1CC1` [Compound I-220, N-cyclopropyl-2-methoxy-4-(5-methyl-4-(2-oxo-2,3-dihydrobenzo[d]oxazol-5-ylamino)pyrimidin-2-ylamino)benzamide], the IC50 was less than 500 nM. With `Cc1cnc(Nc2cnc3c(c2)OCC(=O)N3)nc1Nc1ccc2oc(=O)[nH]c2c1` [IV-46, 5-methyl-N4-(2-oxo-2,3-dihydro-1,3-benzoxazol-5-yl)-N2-(2H-pyrido[3,2-b][1,4]oxazin-3 (4H)-one-7-yl)-2,4-pyrimidinediamine], the IC50 is less than 500 nM.

With `Cc1cnc(Nc2cnc(N3CC4CN(C(=O)OC(C)(C)C)CC4C3)c(F)c2)nc1Nc1ccc2oc(=O)[nH]c2c1` (stereo not shown) [II-48, 5-{3-Fluoro-5-[5-methyl-4-(2-oxo-2,3-dihydro-benzooxazol-5-ylamino)-pyrimidin-2-ylamino]-pyridin-2-yl}-hexahydro-pyrrolo[3,4-c]pyrrole-2-carboxylic acid tert-butyl ester], the 50% inhibitory concentration (IC50) was less than 500 nM.

As for `COc1cc(Nc2ncc(C)c(Nc3ccc4oc(=O)[nH]c4c3)n2)cc(C(=O)N(C)C)c1` [Compound I-252, 3-methoxy-N,N-dimethyl-5-(5-methyl-4-(2-oxo-2,3-dihydrobenzo[d]oxazol-5-ylamino)pyrimidin-2-ylamino)benzamide], the IC50 is less than 500 nM.

Staying with this experiment, now noted: tested under conditions described in Example 3 (IL-2 stimulated human primary T-cell proliferation); read-out: ability to inhibit JAK3 activity, IC50 range (Table V).
`Cc1cnc(Nc2cc(C#N)cc(OC(F)F)c2)nc1Nc1ccc2oc(=O)[nH]c2c1` [Compound I-478, N2-(3-cyano-5-difluoromethoxy)phenyl-5-methyl-N4-(2-oxo-2,3-dihydro-1,3-benzoxazol-5-yl)-2,4-pyrimidinediamine]: the half-inhibitory concentration (IC50) was less than 500 nM. Turning to `Cc1cnc(Nc2cccc(S(C)(=O)=O)c2)nc1Nc1ccc2[nH]c(=O)[nH]c2c1` [Compound I-22, N4-(benzimidazolin-2-on-5-yl)-N2-(3-methylsulfonyl)phenyl-5-methylpyrimidine-2,4-diamine], the IC50 is less than 500 nM. Turning to `CC(=O)N1CCN(c2cccc(Nc3ncc(C)c(Nc4ccc5oc(=O)[nH]c5c4)n3)c2)CC1` [Compound I-345, N2-[3-(4-acetyl)piperazino]phenyl-5-methyl-N4-(2-oxo-2,3-dihydro-1,3-benzoxazol-5-yl)-2,4-pyrimidinediamine], the IC50 is less than 500 nM. As for `Cc1cnc(Nc2cccc(C(O)C(F)(F)F)c2)nc1Nc1ccc2oc(=O)[nH]c2c1` (stereo not shown) [Compound I-304, N2-[3-(1-hydroxy-2,2,2-trifluoroethyl)]phenyl-5-methyl-N4-(2-oxo-2,3-dihydro-1,3-benzoxazol-5-yl)-2,4-pyrimidinediamine], the IC50 is less than 500 nM. Consider `COc1cc(Nc2ncc(C)c(Nc3ccc4oc(=O)n(COP(=O)(OC(C)(C)C)OC(C)(C)C)c4c3)n2)cc(C(F)(F)F)c1` [Compound I-356, N4-{3-[bis(1,1-dimethylethoxy)]phosphinyloxymethyl-2-oxo-2,3-dihydro-1,3-benzoxazol-5-yl}-N2-(3-methoxy-5-trifluoromethyl)phenyl-5-methyl-2,4-pyrimidinediamine], for which the 50% inhibitory concentration (IC50) lay within 5000 to 10000 nM. On the same count and under the same terms, as for `Cc1cnc(Nc2ccc(N3CCN4CCCCC4C3)nc2)nc1Nc1ccc2oc(=O)[nH]c2c1` (stereo not shown) [II-128, N2-[2-(1,4-diazabicylco[4.4.0]decan-4-yl)pyridin-5-yl]-5-methyl-N4-(2-oxo-2,3-dihydro-1,3-benzoxazol-5-yl)-2,4-pyrimidinediamine], the figure is less than 500 nM; as for `Cc1cnc(Nc2cc(F)c(C(F)(F)F)c(F)c2)nc1Nc1ccc2oc(=O)[nH]c2c1` [Compound I-415, N2-(3,5-difluoro-4-trifluoromethyl)phenyl-5-methyl-N4-(2-oxo-2,3-dihydro-1,3-benzoxazol-5-yl)-2,4-pyrimidinediamine], less than 500 nM. For `Cc1cnc(Nc2cccc(S(=O)(=O)NC(C)C)c2)nc1Nc1ccc2oc(=O)[nH]c2c1` [Compound I-114, N4-(benzoxazolin-2-on-5-yl)-N2-[3-N-(i-propyl)aminosulfonylphenyl]-5-methylpyrimidine-2,4-diamine], the IC50 was less than 500 nM. For the compound `COC(=O)COc1cccc(Nc2ncc(C)c(Nc3ccc4oc(=O)[nH]c4c3)n2)c1` [Compound I-305, N2-(3-methoxycarbonylmethoxy)phenyl-5-methyl-N4-(2-oxo-2,3-dihydro-1,3-benzoxazol-5-yl)-2,4-pyrimidinediamine], the 50% inhibitory concentration (IC50) lay within 500 to 5000 nM. Take `Cc1cc(Nc2ncc(C)c(Nc3ccc4oc(=O)[nH]c4c3)n2)cc(OC(F)F)c1` [Compound I-516, N2-(3-difluoromethoxy-5-methyl)phenyl-5-methyl-N4-(2-oxo-2,3-dihydro-1,3-benzoxazol-5-yl)-2,4-pyrimidinediamine]: the 50% inhibitory concentration (IC50) was less than 500 nM. As for `COCCOc1ccc(Nc2ncc(C)c(Nc3ccc4oc(=O)[nH]c4c3)n2)cn1` [II-145, N2-[2-(2-methoxy)ethoxypyridin-5-yl]-5-methyl-N4-(2-oxo-2,3-dihydro-1,3-benzoxazol-5-yl)-2,4-pyrimidinediamine], the half-inhibitory concentration (IC50) is less than 500 nM. As for `O=c1[nH]c2ccc(Nc3nc(Nc4cccc(S(=O)(=O)N5CCOCC5)c4)ncc3F)cc2[nH]1` [Compound I-32, N4-(benzimidazolin-2-on-5-yl)-N2-(3-(morpholinosulfonyl)phenyl)-5-fluoropyrimidine-2,4-diamine], the concentration for half-maximal inhibition (IC50) fell in the range of 500 to 5000 nM.
